Measured values: ChEMBL document CHEMBL1157773, “Cytotoxic polyphenols from the marine-derived fungus Penicillium expansum” (J Nat Prod, 2010)

What was measured:
[1] = tested on: HL-60; assay: Cytotoxicity against human HL60 cells after 72 hrs by MTT assay; format: functional, cell-based
[2] = tested on: A549; assay: Cytotoxicity against human A549 cells after 72 hrs by SRB assay; format: functional, cell-based
[3] = Homo sapiens, HL-60, 72 h, read-out: IC50

Compound	IC50 [1, 3] [µM]	IC50 ([1]; hl-60)	IC50 [2]
COC(C)(CCCC(C)C)c1ccc(Cc2c(C)cc(Oc3cc(C)cc(O)c3)cc2O)cc1O (single isomer, unassigned) [EXPANSOL A]	15.7		
C=C(C)CCC[C@](C)(O)c1ccc(C(=O)O)cc1O [11-DEHYDROSYDONIC ACID]		Not Active	Not Active
Cc1cc(O)cc(Oc2cc(C)c(Cc3ccc([C@](C)(O)CCCC(C)C)c(O)c3)c(O)c2)c1 [EXPANSOL B]	5.4		
CC(=O)OC[C@@H](C)CCC[C@](C)(O)c1ccc(C(=O)O)cc1O [12-ACETOXYSYDONIC ACID]		Not Active	Not Active
